≈ marks a conversion by molar mass, not a printed value.
Assays:
Type in all cases: cell-based
Staph. aureus W2827 = assay: MIC against human bacteria; conditions: Staphylococcus aureus, W2827, 18 h, nutrient agar, 5% chocolated horse blood, 37° C., read-out: MIC
Method: (§1) The values were determined by serial dilutions in nutrient agar with 5% chocolated horse blood after incubations for 18 hours at 37° C.

Staph. aureus Oxford [1] = assay: MIC against human bacteria; conditions: Staphylococcus aureus, 18 h, nutrient agar, 5% chocolated horse blood, 37° C., read-out: MIC
Method: as §1

P. mirabilis 889 = assay: MIC against human bacteria; conditions: Proteus mirabilis, nutrient agar, 5% chocolated horse blood, 18 hours, 37° C., read-out: MIC
Method: as §1

Strep. faecalis I = assay: MIC against human bacteria; conditions: Enterococcus faecalis, nutrient agar, 5% chocolated horse blood, 18 hours, 37° C., read-out: MIC
Method: as §1

Staph. aureus Russell = assay: MIC against human bacteria; conditions: Staphylococcus aureus, 18 h, nutrient agar, 5% chocolated horse blood, 37° C., read-out: MIC
Method: as §1

Strep. 641848-C = assay: MIC against human bacteria; conditions: 18 h, nutrient agar, 5% chocolated horse blood, 37° C., read-out: MIC
Method: as §1

[2] = test system: Corynebacterium xerosis 9755; assay: MIC against human bacteria; conditions: nutrient agar, 5% chocolated horse blood, 18 hours, 37° C., read-out: MIC
Method: as §1

Strep. 2788-B = assay: MIC against human bacteria; conditions: 18 h, nutrient agar, 5% chocolated horse blood, 37° C., read-out: MIC
Method: as §1

[3] = test system: Haemophilus influenzae Q1; assay: MIC against human bacteria; conditions: nutrient agar, 5% chocolated horse blood, 18 hours, 37° C., read-out: MIC
Method: as §1

[4] = test system: Strep. pyrogenes R80/421-A; assay: MIC against human bacteria; conditions: 18 h, nutrient agar, 5% chocolated horse blood, 37° C., read-out: MIC
Method: as §1

Bacillus subtilis 6633 = assay: MIC against human bacteria; conditions: Bacillus subtilis, 6633, 18 h, nutrient agar, 5% chocolated horse blood, 37° C., read-out: MIC
Method: as §1

Past. multocida 1633 = assay: MIC against human bacteria; conditions: Pasteurella multocida, 1633, 18 h, nutrient agar, 5% chocolated horse blood, 37° C., read-out: MIC
Method: as §1

Strep. pneumoniae CN33 = assay: MIC against human bacteria; conditions: Streptococcus pneumoniae, CN33, 18 h, nutrient agar, 5% chocolated horse blood, 37° C., read-out: MIC
Method: as §1

E. coli ESS = assay: MIC against human bacteria; conditions: Escherichia coli, 18 h, nutrient agar, 5% chocolated horse blood, 37° C., read-out: MIC
Method: as §1

[5] = test system: Ps. aeruginosa NCTC 10662; assay: MIC against human bacteria; conditions: Pseudomonas aeruginosa, NCTC10662, nutrient agar, 5% chocolated horse blood, 18 hours, 37° C., read-out: MIC
Method: as §1

K. aerogenes A = assay: MIC against human bacteria; conditions: Klebsiella aerogenes, nutrient agar, 5% chocolated horse blood, 18 hours, 37° C., read-out: MIC
Method: as §1

[6] = test system: Neisseria catarrhalis 1502; assay: MIC against human bacteria; conditions: Neisseria, 1502, 18 h, nutrient agar, 5% chocolated horse blood, 37° C., read-out: MIC
Method: as §1

Sarcina lutea 8340 = assay: MIC against human bacteria; conditions: Micrococcus luteus, nutrient agar, 5% chocolated horse blood, 18 hours, 37° C., read-out: MIC
Method: as §1

E. coli NCTC 10418 [7] = assay: MIC against human bacteria; conditions: Escherichia coli, NCTC10418, nutrient agar, 5% chocolated horse blood, 18 hours, 37° C., read-out: MIC
Method: as §1

Staph. aureus Oxford [8] = assay: MIC against veterinary bacteria; conditions: Staphylococcus aureus, 18 h, Diagnostic Sensitivity Test Agar, 37° C., read-out: MIC
Method: (§2) The values were determined using a two fold serial dilutions in Diagnostic Sensitivity Test Agar with an inoculum of 10^4 organisms and incubation for 18 hours at 37° C.

S. dublin S7 = assay: MIC against veterinary bacteria; conditions: Salmonella enterica, Diagnostic Sensitivity Test Agar, 18 hours, 37° C., read-out: MIC
Method: as §2

Bord. bronchiseptica B08 = assay: MIC against veterinary bacteria; conditions: Bordetella bronchiseptica, B08, 18 h, Diagnostic Sensitivity Test Agar, 37° C., read-out: MIC
Method: as §2

Past. multocida PA2 = assay: MIC against veterinary bacteria; conditions: Pasteurella multocida, PA2, 18 h, Diagnostic Sensitivity Test Agar, 37° C., read-out: MIC
Method: as §2

Strep. uberis SPU1 = assay: MIC against veterinary bacteria; conditions: Streptococcus uberis, SPU1, 18 h
Method: as §2

[9] = test system: Erysipelothrix rhusiopathiae NCTC 8163; assay: MIC against veterinary bacteria; conditions: NCTC8163, Diagnostic Sensitivity Test Agar, 18 hours, 37° C., read-out: MIC
Method: as §2

Past. multocida PA1 = assay: MIC against veterinary bacteria; conditions: Pasteurella multocida, PA1, 18 h, Diagnostic Sensitivity Test Agar, 37° C., read-out: MIC
Method: as §2

S. typhimurium S18 = assay: MIC against veterinary bacteria; conditions: Salmonella enterica, Diagnostic Sensitivity Test Agar, 18 hours, 37° C., read-out: MIC
Method: as §2

Staph. aureus B4 = assay: MIC against veterinary bacteria; conditions: Staphylococcus aureus, B4, 18 h, Diagnostic Sensitivity Test Agar, 37° C., read-out: MIC
Method: as §2

[10] = test system: Corynebacterium pyogenes CY1; assay: MIC against veterinary bacteria; conditions: Rhodococcus (subgen. Prescottella) equi, Diagnostic Sensitivity Test Agar, 18 hours, 37° C., read-out: MIC
Method: as §2

Staph. aureus 152 = assay: MIC against veterinary bacteria; conditions: Staphylococcus aureus, 152, 18 h, Diagnostic Sensitivity Test Agar, 37° C., read-out: MIC
Method: as §2

Strep. dysgalactiae SPD1 = assay: MIC against veterinary bacteria; conditions: Streptococcus dysgalactiae, SPD1, 18 h, Diagnostic Sensitivity Test Agar, 37° C., read-out: MIC
Method: as §2

[11] = test system: Strep. suis (group D) SPS11; assay: MIC against veterinary bacteria; conditions: Streptococcus suis, 18 h, Diagnostic Sensitivity Test Agar, 37° C., read-out: MIC
Method: as §2

Strep. agalactiae SPA1 = assay: MIC against veterinary bacteria; conditions: Streptococcus agalactiae, SPA1, 18 h, Diagnostic Sensitivity Test Agar, 37° C., read-out: MIC
Method: as §2

E. coli E1 = assay: MIC against veterinary bacteria; conditions: Escherichia coli, Diagnostic Sensitivity Test Agar, 18 hours, 37° C., read-out: MIC
Method: as §2

Past. haemolytica PA5 = assay: MIC against veterinary bacteria; conditions: Mannheimia haemolytica, PA5, 18 h, Diagnostic Sensitivity Test Agar, 37° C., read-out: MIC
Method: as §2

Bord. bronchiseptica B09 = assay: MIC against veterinary bacteria; conditions: Bordetella bronchiseptica, B09, 18 h, Diagnostic Sensitivity Test Agar, 37° C., read-out: MIC
Method: as §2

E. coli NCTC 10418 [12] = assay: MIC against veterinary bacteria; conditions: Escherichia coli, NCTC10418, Diagnostic Sensitivity Test Agar, 18 hours, 37° C., read-out: MIC
Method: as §2

Q: Which results are given for CC(CC1OCC(CC2OC2C(C)C(C)O)C(O)C1O)=C(F)C(=O)OCc1cccc([N+](=O)[O-])c1 [Example 4, 3-Nitrobenzyl 4-[5S-(2S,3S-epoxy-5S-hydroxy-4S-methylhexyl)-3R,4R-dihydroxytetrahydropyran-2S-yl]-2-fluoro-3-methylbut-2(Z)-enoate]?
A: MIC (Staph. aureus W2827): 2.5 µg/mL (≈ 5.02 µM); MIC (Staph. aureus Oxford [1]): 2.5 µg/mL (≈ 5.02 µM); MIC (P. mirabilis 889): > 100 µg/mL; MIC (Strep. faecalis I): > 100 µg/mL; MIC (Staph. aureus Russell): 2.5 µg/mL (≈ 5.02 µM); MIC (Strep. 641848-C): 0.5 µg/mL (≈ 1 µM); MIC [2]: > 100 µg/mL; MIC (Strep. 2788-B): 2.5 µg/mL (≈ 5.02 µM); MIC [3]: 0.5 µg/mL (≈ 1 µM); MIC [4]: 0.5 µg/mL (≈ 1 µM); MIC (Bacillus subtilis 6633): 0.5 µg/mL (≈ 1 µM); MIC (Past. multocida 1633): 2.5 µg/mL (≈ 5.02 µM); MIC (Strep. pneumoniae CN33): 0.5 µg/mL (≈ 1 µM); MIC (E. coli ESS): 1 µg/mL (≈ 2.01 µM); MIC [5]: > 100 µg/mL; MIC (K. aerogenes A): > 100 µg/mL; MIC [6]: 0.5 µg/mL (≈ 1 µM); MIC (Sarcina lutea 8340): > 100 µg/mL; MIC (E. coli NCTC 10418 [7]): > 100 µg/mL; MIC (Staph. aureus Oxford [8]): 1.25 µg/mL (≈ 2.51 µM); MIC (S. dublin S7): > 80 µg/mL; MIC (Bord. bronchiseptica B08): 80 µg/mL (≈ 161 µM); MIC (Past. multocida PA2): 0.312 µg/mL (≈ 0.627 µM); MIC (Strep. uberis SPU1): 0.156 µg/mL (≈ 0.314 µM); MIC [9]: 80 µg/mL (≈ 161 µM); MIC (Past. multocida PA1): 0.625 µg/mL (≈ 1.26 µM); MIC (S. typhimurium S18): > 80 µg/mL; MIC (Staph. aureus B4): 2.5 µg/mL (≈ 5.02 µM); MIC [10]: 80 µg/mL (≈ 161 µM); MIC (Staph. aureus 152): 1.25 µg/mL (≈ 2.51 µM); MIC (Strep. dysgalactiae SPD1): 0.312 µg/mL (≈ 0.627 µM); MIC [11]: 5 µg/mL (≈ 10 µM); MIC (Strep. agalactiae SPA1): 1.25 µg/mL (≈ 2.51 µM); MIC (E. coli E1): > 80 µg/mL; MIC (Past. haemolytica PA5): 10 µg/mL (≈ 20.1 µM); MIC (Bord. bronchiseptica B09): 10 µg/mL (≈ 20.1 µM); MIC (E. coli NCTC 10418 [12]): > 80 µg/mL

— patent US4435583A, “2-Halo-substituted monic acid A useful as antibacterial compounds” (Beecham Group p.l.c., priority 1981, dated 1984)
